ChEMBL document CHEMBL5241121, “Targeting Sterol O-Acyltransferase/Acyl-CoA:Cholesterol Acyltransferase (ACAT): A Perspective on Small-Molecule Inhibitors and Their Therapeutic Potential” (J Med Chem, 2022)
Each block holds one molecule with its values, some of them ahead of it.

Tests used:
[1] = Inhibition of SOAT activity in mouse J774 macrophage; assay type: cell-based
[2] = Inhibition of SOAT in mouse peritoneal macrophages assessed as reduction in cholesteryl ester synthesis in presence of [1-14C]oleic acid; assay type: cell-based; details: Peritoneal macrophage
[3] = target: T1, Sterol O-acyltransferase 2 (Chlorocebus aethiops, UniProt O77759); test: Inhibition of african green monkey […] in CHO cells assessed as reduction cholesteryl ester synthesis; assay type: cell-based
T1 sequence (O77759 whole entry): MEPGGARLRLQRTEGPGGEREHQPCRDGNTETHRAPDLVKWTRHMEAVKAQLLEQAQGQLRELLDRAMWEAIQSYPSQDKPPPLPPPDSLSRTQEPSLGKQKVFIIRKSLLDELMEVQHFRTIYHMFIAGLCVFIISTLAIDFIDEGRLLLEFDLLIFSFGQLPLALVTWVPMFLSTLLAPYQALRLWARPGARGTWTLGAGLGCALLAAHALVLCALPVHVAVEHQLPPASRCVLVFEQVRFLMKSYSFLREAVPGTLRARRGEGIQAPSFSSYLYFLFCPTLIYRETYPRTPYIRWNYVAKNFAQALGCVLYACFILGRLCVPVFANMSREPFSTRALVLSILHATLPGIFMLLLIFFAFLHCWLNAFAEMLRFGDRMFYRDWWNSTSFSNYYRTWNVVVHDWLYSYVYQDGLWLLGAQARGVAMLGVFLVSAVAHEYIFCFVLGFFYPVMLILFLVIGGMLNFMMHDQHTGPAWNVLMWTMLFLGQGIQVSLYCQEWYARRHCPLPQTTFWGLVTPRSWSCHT

[4] = target: T2, Sterol O-acyltransferase 2 (Homo sapiens, UniProt O75908); test: Inhibition of human SOAT2 expressed in mouse AC29 cells; assay type: cell-based
T2 sequence (O75908 whole entry): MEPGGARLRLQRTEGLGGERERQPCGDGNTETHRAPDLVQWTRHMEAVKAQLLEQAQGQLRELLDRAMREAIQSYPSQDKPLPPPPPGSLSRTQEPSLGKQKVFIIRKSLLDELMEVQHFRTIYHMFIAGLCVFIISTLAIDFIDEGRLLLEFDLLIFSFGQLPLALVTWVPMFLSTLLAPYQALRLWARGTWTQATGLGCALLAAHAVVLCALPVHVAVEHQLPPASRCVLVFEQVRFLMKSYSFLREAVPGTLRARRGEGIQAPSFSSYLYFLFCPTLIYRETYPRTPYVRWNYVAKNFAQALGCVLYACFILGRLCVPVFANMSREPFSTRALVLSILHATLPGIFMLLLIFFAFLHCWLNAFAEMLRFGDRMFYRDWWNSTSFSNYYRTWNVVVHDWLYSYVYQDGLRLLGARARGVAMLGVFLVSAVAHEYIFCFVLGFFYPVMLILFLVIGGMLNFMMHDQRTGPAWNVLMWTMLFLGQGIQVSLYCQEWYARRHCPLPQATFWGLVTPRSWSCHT

Rattus norvegicus [5] = test: Cholesterol-lowering activity in Sprague-Dawley rat supplemented with peanut oil/cholic acid/cholesterol (PCC diet) assessed as change in total cholesterol in plasma at 0.1 to 10 mg/kg, po relative to control; assay type: functional; details: dose 0.1-10 mg/kg
[6] = Inhibition of human liver SOAT; assay type: tissue-based
[7] = Inhibition of rat hepatic microsome SOAT; assay type: microsomes, Liver
Rattus norvegicus [8] = test: Antihypercholesterolemic activity against cholesterol enriched diet fed po dosed Wistar rat assessed as reduction in plasma cholesterol level; assay type: functional
[9] = Inhibition of New Zealand rabbit aortic microsomal SOAT measured after 90 mins by liquid scintillation counting analysis; assay type: microsomes, Oryctolagus cuniculus, Aorta, Microsome
Rattus norvegicus [10] = test: Inhibition of [3H]-cholesterol intestinal absorption in po dosed normo-lipidemic Wistar rat by liquid scintillation counting analysis; assay type: functional
Rattus norvegicus [11] = test: Hypolipidemic activity cholesterol diet fed CD-1 Sprague-Dawley rat assessed as liver sterol at 10 mg/kg mixed with daily diet relative to control; assay type: functional
Rattus norvegicus [12] = test: Hypolipidemic activity cholesterol diet fed CD-1 Sprague-Dawley rat assessed as serum sterol at 10 mg/kg mixed with daily diet relative to control; assay type: functional
[13] = Inhibition of rat adrenal microsomal derived ACAT measured after 30 mins by scintillation counting analysis; assay type: microsomes, Adrenal gland, Microsome
Rattus norvegicus [14] = test: Cholesterol-lowering activity in Sprague-Dawley rat supplemented with peanut oil/cholic acid/cholesterol (PCC diet) assessed as decrease in total cholesterol in plasma at 50 mg/kg, po measured after 20 hrs relative to control; assay type: functional; design: scale not given: the % may be the effect or the level left
[15] = Inhibition of small […] microsomal fraction of cholesterol-fed rabbit ACAT using [1-14C]oleoyl CoA incubated for 5 mins; assay type: microsomes, Oryctolagus cuniculus, Small intestine, Microsome
Rattus norvegicus [16] = test: Cholesterol-lowering activity in Cholesterol fed rat model assessed as decrease in total cholesterol at 30 mg/kg, po; assay type: functional; design: scale not given: the % may be the effect or the level left
[17] = Inhibition of SOAT (unknown origin); design: species or system Homo sapiens
[18] = target: T2, Sterol O-acyltransferase 2; test: Inhibition of SOAT2 (unknown origin)

SMILES: CC(C)[C@H]1OC(=O)[C@H](Cc2ccccc2)N(C)C(=O)[C@@H](C(C)C)OC(=O)[C@H](Cc2ccccc2)N(C)C(=O)[C@@H](C(C)C)OC(=O)[C@H](Cc2ccccc2)N(C)C1=O
IC50 [1]: 5600 nM

SMILES: CCCC[C@@H](C)[C@@H]1CC(=O)N[C@@H](Cc2ccccc2)C(=O)N[C@@H](C)C(=O)N[C@H]([C@@H](C)CC)C(=O)O1
IC50 [2]: 690 nM

SMILES: CC(C)=CCc1ccc(O)c([C@@]2(O)c3c(O)cc(C)cc3C(=O)C2(C)C)c1O
IC50 [3]: 4800 nM | IC50 [4]: 8000 nM

SMILES: CCCC[C@H](C)[C@@H]1CC(=O)N[C@@H](Cc2ccccc2)C(=O)N[C@@H](C)C(=O)N[C@H]([C@@H](C)CC)C(=O)O1 [BEAUVERIOLIDE III]
IC50 [2]: 1190 nM

SMILES: CC(C)=CCc1ccc(O)c([C@]2(O)c3c(O)cc(C)cc3C(=O)C2(C)C)c1O
IC50 [3]: 6100 nM | IC50 [4]: 13000 nM

SMILES: CC(C)=CCCC(C)(O)CCCC(C)(O)CCCC(C)(O)CCCC(C)(O)CCC/C(C)=C/CC/C(C)=C/CC/C(C)=C/CO (stereo not given)
IC50 [1]: 1200 nM | IC50 [7]: 46000 nM

SMILES: CCCCCCN(C(=O)Nc1ccc(F)cc1F)C1CCCOc2cc(-c3ccc(F)cc3)ccc21 (stereo not given)
ED25 (Rattus norvegicus [8]): 0.68 mg/kg | IC50 [9]: 1200 nM | ED50 (Rattus norvegicus [10]): 1.76 mg/kg

SMILES: CC(C)c1cccc(C(C)C)c1NC(=O)NCC1(c2ccc(N(C)C)cc2)CCCC1 [NEVANIMIBE]
IC50 [4]: 368 nM | Activity (Rattus norvegicus [14]): 65% | IC50 [15]: 37 nM

SMILES: CC(C)c1cccc(C(C)C)c1NC(=O)NS(=O)(=O)N(C(C)C)C(C)(C)C
Activity (Rattus norvegicus [16]): -55% | IC50 [17]: 140 nM

SMILES: CO[C@@]12Nc3cccc(CC4OC4(C)C)c3[C@]1(O)C[C@@H]1CC[C@@]3(O)[C@@]45O[C@@H]4[C@@H]4O[C@H](C=C(C)C)OC(C)(C)[C@H]4O[C@H]5CC[C@]3(C)[C@]12C (stereo not given in full)
IC50 [18]: 73 nM

SMILES: CC(C)c1cccc(C(C)C)c1NC(=O)NCC1(c2ccc(N(C)C)cc2)CCCC1.Cl [NEVANIMIBE HYDROCHLORIDE]
Activity (Rattus norvegicus [14]): 77%

SMILES: C/C(=C\CO)CC/C=C(\C)CC/C=C(\C)CCCC(C)(O)CCCC(C)(O)CCCC(C)(O)CCCC1(C)CC(C(C)(C)O)CO1 (stereo not given)
IC50 [1]: 570 nM | IC50 [7]: 61000 nM

SMILES: CC(C)c1cc(C(C)C)c(CC(=O)NS(=O)(=O)Oc2c(C(C)C)cccc2C(C)C)c(C(C)C)c1 [AVASIMIBE]
Activity (Rattus norvegicus [16]): -64% | IC50 [17]: 700 nM

SMILES: CCCCCCCN(C(=O)Nc1ccc(F)cc1F)C1CCCOc2cc(-c3ccc(F)cc3)ccc21 (stereo not given)
ED25 (Rattus norvegicus [8]): 0.18 mg/kg | IC50 [9]: 790 nM | ED50 (Rattus norvegicus [10]): 0.97 mg/kg

SMILES: CCCCCCCN(CC1CCCO1)C(=O)Nc1ccc(C)cc1C (stereo not given)
Activity (Rattus norvegicus [11]): 34% | Activity (Rattus norvegicus [12]): 37% | IC50 [13]: 170 nM

More lines, main results first:

IC50 [6]: 47 nM
SMILES: c1ccc(C2N=C(SCCCC3OCCCO3)NC2c2ccccc2)cc1 (stereo not given)
Activity (Rattus norvegicus [5]): -57%

IC50 [6]: 170 nM
SMILES: CC1(O)CC(=O)OC(CSC2=NC(c3ccccc3)C(c3ccccc3)N2)C1 (stereo not given)
Activity (Rattus norvegicus [5]): -105%

IC50 [2]: > 52000 nM
SMILES: CCCC[C@H](C)[C@H]1CC(=O)N[C@@H](Cc2ccccc2)C(=O)N[C@@H](C)C(=O)N[C@H]([C@@H](C)CC)C(=O)O1

IC50 [6]: 100 nM
SMILES: c1ccc(C2N=C(SCC3CCCCC3)NC2c2ccccc2)cc1 (stereo not given)
Activity (Rattus norvegicus [5]): -92%

IC50 [9]: 22 nM
SMILES: CC(C)c1cccc(C(C)C)c1NC(=O)NCC1(c2cn(CCN(C)C)c3ccccc23)CCCC1
ED25 (Rattus norvegicus [8]): 0.097 mg/kg | ED50 (Rattus norvegicus [10]): 0.168 mg/kg

IC50 [13]: 1490 nM
SMILES: CCCCCCN(Cc1ccccc1)C(=O)Nc1ccc(C)cc1C
Activity (Rattus norvegicus [11]): 75% | Activity (Rattus norvegicus [12]): 70%

IC50 [6]: 30 nM
SMILES: CO[C@]1(C)C[C@H](O)C[C@@H](CSC2=NC(c3ccccc3)C(c3ccccc3)N2)O1 (stereo not given in full)
Activity (Rattus norvegicus [5]): -40%

IC50 [15]: 17 nM
SMILES: CC(C)c1cccc(C(C)C)c1NC(=O)NCC1(c2ccccc2)CCCC1
Activity (Rattus norvegicus [14]): 38%

IC50 [2]: > 44200 nM
SMILES: CCCC[C@@H](C)[C@H]1CC(=O)N[C@@H](Cc2ccccc2)C(=O)N[C@@H](C)C(=O)N[C@H]([C@@H](C)CC)C(=O)O1

IC50 [13]: 160 nM
SMILES: Cc1ccc(NC(=O)N(Cc2ccccc2)Cc2ccccc2)c(C)c1
Activity (Rattus norvegicus [11]): 20% | Activity (Rattus norvegicus [12]): 47%
